Data published in US12187773B2, “Modified GIP peptide analogues” (Antag Therapeutics ApS, priority 2018, dated 2025).
Where a SMILES comes first, the peptide text is derived from it. The star is where a group is joined. C16 diacid = O=C(O)CCCCCCCCCCCCCCC(=O)*

What was measured:
Type in all cases: cell-based
human GIP receptor [1] = molecular target: T1, human GIP receptor (Homo sapiens, UniProt P48546); experiment: cAMP agonism (CisBio cAMP Dynamic 2 HTRF assay); conditions: HEK293, read-out: cAMP agonism, % Efficacy, Table 1C, HEK-293 cells
T1 sequence (P48546 22-466): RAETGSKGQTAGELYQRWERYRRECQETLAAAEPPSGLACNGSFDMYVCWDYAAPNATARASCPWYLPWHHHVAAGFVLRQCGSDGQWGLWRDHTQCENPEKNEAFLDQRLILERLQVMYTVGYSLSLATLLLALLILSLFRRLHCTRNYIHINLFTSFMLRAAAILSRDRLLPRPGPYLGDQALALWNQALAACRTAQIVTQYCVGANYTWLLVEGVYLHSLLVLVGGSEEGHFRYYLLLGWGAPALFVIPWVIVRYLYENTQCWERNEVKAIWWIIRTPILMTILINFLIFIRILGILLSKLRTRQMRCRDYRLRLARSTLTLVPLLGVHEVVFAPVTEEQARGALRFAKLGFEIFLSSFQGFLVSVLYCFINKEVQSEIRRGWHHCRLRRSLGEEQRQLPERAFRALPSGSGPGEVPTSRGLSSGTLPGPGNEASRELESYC
Method: To test for agonistic properties at the GIP receptor, compounds were diluted and added to cells as described above and incubated for 30 min at 37° C. The resulting increase in intracellular cAMP was determined using the CisBio cAMP Dynamic 2 HTRF Assay Kit as described above.

human GIP receptor [2] = molecular target: T1, human GIP receptor; experiment: cAMP antagonism (CisBio cAMP Dynamic 2 HTRF assay); design: pCMV-Script vector; conditions: CisBio, HEK-293 cells; for IC50: cAMP antagonism, agonist GIP1-42 at EC50
Method: The in vitro functional activity of compounds towards human GIP receptor can also be determined in HEK-293 cells transiently expressing the receptor. On the day of the assay, cells were resuspended in HBSS buffer (Gibco, 14025-50) supplemented with 20 mM HEPES (Gibco, 15630-106), 0,1% Pluronic F-68 (Gibco, 24040-032) and 0,1% casein (Sigma, C4765), and plated in 384-well plates at a density of 5000 cells/well. The GIP peptide analogues of the present disclosure were diluted in HBSS buffer supplemented with 20 mM HEPES, 0,1% pluronic, 0,1% casein and 500 uM IBMX. […] The resulting decrease in intracellular cAMP was quantitatively determined using the CisBio cAMP Dynamic 2 HTRF Assay Kit. The assay is based on a competition between native cAMP produced by cells and cAMP labeled with the dye d2 for binding to a cryptate labeled antibody. The specific signal (i.e. energy transfer signal) is inversely proportional to the concentration of cAMP in the sample.
The cAMP-d2 conjugate and the antibody anti-cAMP-Cryptate, both diluted in lysis buffer provided in the kit, were added to the cells according to the manufacturer's protocol. The resulting competitive assay was incubated for 60 minutes at room temperature, and the signal was detected by using a PerkinElmer Envision® instrument with excitation at 320 nm and emission at 665 nm and 620 nm. The HTRF ratio (emission at 665 nm/620 nm*10,000) is inversely proportional to the amount of cAMP present and is converted to nM cAMP per well using a cAMP standard curve. The dose-response curves were fitted using the non-linear regression analysis (four-logistic parameter equation) in GraphPad Prism, whereby pIC50 values were estimated.

human GIP receptor [3] = molecular target: T1, human GIP receptor; experiment: cAMP accumulation, agonism (DiscoveRx HitHunter cAMP XS assay); design: host or cells: COS-7 (transient, calcium phosphate; pCMV-Script vector); conditions: COS-7, read-out: cAMP agonism, Emax
Method: Transient transfected COS-7 cells expressing the human GIP receptor were seeded in white 96-well plates with a density of 3.5*10^4/well. The day after, the cells were washed twice with Hepes buffered saline (HBS) buffer and incubated with HBS and 1 mM 3-isobutyl-1-methylxanthine (IBMX) for 30 min at 37° C. To test for agonistic properties, ligands were added and incubated for 30 min at 37° C. In order to test for antagonistic properties, the cells were preincubated with the antagonists for 10 min prior to the addition of the agonist and subsequent incubated for 20 additional min. The HitHunter™ cAMP XS assay (DiscoveRx) was carried out according to the manufacturer's instructions.
In order to develop a GIP receptor antagonist with improved antagonistic properties, individual amino acid substitutions were conducted on GIP(3-30)NH2 and in particular at positions: 16, 18, 30 or 3, 16, 18, 30. The obtained peptides were lipidated at position 18 directly or via a linker. Both the agonistic and antagonistic profiles of the compounds were tested in cAMP accumulation experiments done in transiently transfected COS-7 cells expressing the human GIP receptor. To investigate if these mutated analogues still retained their antagonistic properties, their ability to inhibit a GIP-mediated cAMP response corresponding to 50-80% of maximum activation was examined.

Compound	Emax (human GIP receptor [1])	cAMP antagonism, % inhib (human GIP receptor [2]; Table 1C)	IC50 (human GIP receptor [2]; nM (IC50), Table 1C)	Emax (human GIP receptor [3])	IC50 (human GIP receptor [2]; pIC50, Table 1C)
CC[C@H](C)[C@H](NC(=O)[C@H](CO)NC(=O)[C@H](Cc1ccc(O)cc1)NC(=O)[C@H](CC(=O)O)NC(=O)[C@H](CO)NC(=O)[C@@H](NC(=O)[C@H](Cc1ccccc1)NC(=O)[C@@H](NC(=O)CNC(=O)[C@@H]1CCCN1)[C@@H](C)O)[C@@H](C)CC)C(=O)N[C@@H](C)C(=O)N[C@@H](CCSC)C(=O)N[C@@H](CC(=O)O)C(=O)N[C@@H](CCCNC(=N)N)C(=O)N[C@H](C(=O)N[C@@H](CCCCNC(=O)CCCCCCCCCCCCCCC(=O)O)C(=O)N[C@@H](CCC(N)=O)C(=O)N[C@@H](CCC(N)=O)C(=O)N[C@@H](CC(=O)O)C(=O)N[C@@H](Cc1ccccc1)C(=O)N[C@H](C(=O)N[C@@H](CC(N)=O)C(=O)N[C@@H](Cc1c[nH]c2ccccc12)C(=O)N[C@@H](CC(C)C)C(=O)N[C@@H](CC(C)C)C(=O)N[C@@H](C)C(=O)N[C@@H](CCC(N)=O)C(=O)N[C@@H](CCCNC(=N)N)C(=O)O)C(C)C)[C@@H](C)CC [AT261] (H-PGTFISDYSIAMDRIK(C16 diacid)QQDFVNWLLAQR-OH; N-terminus assumed)	0%	62%	200 nM	24%	–
CC[C@H](C)[C@H](NC(=O)[C@H](CO)NC(=O)[C@H](Cc1ccc(O)cc1)NC(=O)[C@H](CC(=O)O)NC(=O)[C@H](CO)NC(=O)[C@@H](NC(=O)[C@H](Cc1ccccc1)NC(=O)[C@@H](NC(=O)CNC(=O)CN)[C@@H](C)O)[C@@H](C)CC)C(=O)N[C@@H](C)C(=O)N[C@@H](CCSC)C(=O)N[C@@H](CC(=O)O)C(=O)N[C@@H](CCCNC(=N)N)C(=O)N[C@H](C(=O)N[C@@H](CCCCNC(=O)CC[C@H](NC(=O)CCCCCCCCCCCCCCC(=O)O)C(=O)O)C(=O)N[C@@H](CCC(N)=O)C(=O)N[C@@H](CCC(N)=O)C(=O)N[C@@H](CC(=O)O)C(=O)N[C@@H](Cc1ccccc1)C(=O)N[C@H](C(=O)N[C@@H](CC(N)=O)C(=O)N[C@@H](Cc1c[nH]c2ccccc12)C(=O)N[C@@H](CC(C)C)C(=O)N[C@@H](CC(C)C)C(=O)N[C@@H](C)C(=O)N[C@@H](CCC(N)=O)C(=O)N[C@@H](CCCNC(=N)N)C(=O)O)C(C)C)[C@@H](C)CC [AT263] (HELM PEPTIDE1{G.G.T.F.I.S.D.Y.S.I.A.M.D.R.I.K.Q.Q.D.F.V.N.W.L.L.A.Q.R}|PEPTIDE2{[O=C(O)CCCCCCCCCCCCCCC(=O)[*:2]].[gGlu]}$PEPTIDE1,PEPTIDE2,16:R3-2:R2$$$V2.0; N-terminus assumed)	0%	69%	21 nM	8%	200 nM
CC[C@H](C)[C@H](NC(=O)[C@H](CO)NC(=O)[C@H](Cc1ccc(O)cc1)NC(=O)[C@H](CC(=O)O)NC(=O)[C@H](CO)NC(=O)[C@@H](NC(=O)[C@H](Cc1ccccc1)NC(=O)[C@@H](NC(=O)CNC(=O)[C@@H](N)CO)[C@@H](C)O)[C@@H](C)CC)C(=O)N[C@@H](C)C(=O)N[C@@H](CCSC)C(=O)N[C@@H](CC(=O)O)C(=O)N[C@@H](CCCNC(=N)N)C(=O)N[C@H](C(=O)N[C@@H](CCCCNC(=O)CC[C@H](NC(=O)CCCCCCCCCCCCCCC(=O)O)C(=O)O)C(=O)N[C@@H](CCC(N)=O)C(=O)N[C@@H](CCC(N)=O)C(=O)N[C@@H](CC(=O)O)C(=O)N[C@@H](Cc1ccccc1)C(=O)N[C@H](C(=O)N[C@@H](CC(N)=O)C(=O)N[C@@H](Cc1c[nH]c2ccccc12)C(=O)N[C@@H](CC(C)C)C(=O)N[C@@H](CC(C)C)C(=O)N[C@@H](C)C(=O)N[C@@H](CCC(N)=O)C(=O)N[C@@H](CCCNC(=N)N)C(=O)O)C(C)C)[C@@H](C)CC [AT265] (HELM PEPTIDE1{S.G.T.F.I.S.D.Y.S.I.A.M.D.R.I.K.Q.Q.D.F.V.N.W.L.L.A.Q.R}|PEPTIDE2{[O=C(O)CCCCCCCCCCCCCCC(=O)[*:2]].[gGlu]}$PEPTIDE1,PEPTIDE2,16:R3-2:R2$$$V2.0; N-terminus assumed)	8%	73%	58.4 nM	10%	–
CC[C@H](C)[C@H](NC(=O)[C@H](CO)NC(=O)[C@H](Cc1ccc(O)cc1)NC(=O)[C@H](CC(=O)O)NC(=O)[C@H](CO)NC(=O)[C@@H](NC(=O)[C@H](Cc1ccccc1)NC(=O)[C@@H](NC(=O)CNC(=O)[C@@H]1CCCN1)[C@@H](C)O)[C@@H](C)CC)C(=O)N[C@@H](C)C(=O)N[C@@H](CCSC)C(=O)N[C@@H](CC(=O)O)C(=O)N[C@@H](CCCNC(=N)N)C(=O)N[C@H](C(=O)N[C@@H](CCCCNC(=O)CC[C@H](NC(=O)CCCCCCCCCCCCCCC(=O)O)C(=O)O)C(=O)N[C@@H](CCC(N)=O)C(=O)N[C@@H](CCC(N)=O)C(=O)N[C@@H](CC(=O)O)C(=O)N[C@@H](Cc1ccccc1)C(=O)N[C@H](C(=O)N[C@@H](CC(N)=O)C(=O)N[C@@H](Cc1c[nH]c2ccccc12)C(=O)N[C@@H](CC(C)C)C(=O)N[C@@H](CC(C)C)C(=O)N[C@@H](C)C(=O)N[C@@H](CCC(N)=O)C(=O)N[C@@H](CCCNC(=N)N)C(=O)O)C(C)C)[C@@H](C)CC [AT267] (HELM PEPTIDE1{P.G.T.F.I.S.D.Y.S.I.A.M.D.R.I.K.Q.Q.D.F.V.N.W.L.L.A.Q.R}|PEPTIDE2{[O=C(O)CCCCCCCCCCCCCCC(=O)[*:2]].[gGlu]}$PEPTIDE1,PEPTIDE2,16:R3-2:R2$$$V2.0; N-terminus assumed)	4%	52%	–	16%	–
CC[C@H](C)[C@H](NC(=O)[C@H](CO)NC(=O)[C@H](Cc1ccc(O)cc1)NC(=O)[C@H](CC(=O)O)NC(=O)[C@H](CO)NC(=O)[C@@H](NC(=O)[C@H](Cc1ccccc1)NC(=O)[C@@H](NC(=O)CNC(=O)[C@@H](N)CO)[C@@H](C)O)[C@@H](C)CC)C(=O)N[C@@H](C)C(=O)N[C@@H](CCSC)C(=O)N[C@@H](CC(=O)O)C(=O)N[C@@H](CCCNC(=N)N)C(=O)N[C@H](C(=O)N[C@@H](CCCCNC(=O)COCCOCCNC(=O)CC[C@H](NC(=O)CCCCCCCCCCCCCCC(=O)O)C(=O)O)C(=O)N[C@@H](CCC(N)=O)C(=O)N[C@@H](CCC(N)=O)C(=O)N[C@@H](CC(=O)O)C(=O)N[C@@H](Cc1ccccc1)C(=O)N[C@H](C(=O)N[C@@H](CC(N)=O)C(=O)N[C@@H](Cc1c[nH]c2ccccc12)C(=O)N[C@@H](CC(C)C)C(=O)N[C@@H](CC(C)C)C(=O)N[C@@H](C)C(=O)N[C@@H](CCC(N)=O)C(=O)N[C@@H](CCCNC(=N)N)C(=O)O)C(C)C)[C@@H](C)CC [AT271] (HELM PEPTIDE1{S.G.T.F.I.S.D.Y.S.I.A.M.D.R.I.K.Q.Q.D.F.V.N.W.L.L.A.Q.R}|PEPTIDE2{[O=C(O)CCCCCCCCCCCCCCC(=O)[*:2]].[gGlu].[O=C(COCCOCCN[*:1])[*:2]]}$PEPTIDE1,PEPTIDE2,16:R3-3:R2$$$V2.0; N-terminus assumed)	2%	73%	85.8 nM	9%	–
